Legend:
Aurora Kinase 1 = molecular target: T1, Aurora Kinase 1 (Homo sapiens, UniProt Q96GD4); experiment: capture ELISA measuring Aurora Kinase 1 autophosphorylation in HT29 colon carcinoma cells; type: cell-based; conditions: HT29 cells synchronized for 24 hours, compound treatment 2 hours
T1 construct: endogenous in cells; host or cells: HT29 colon carcinoma cells
Protocol: To determine the ability of compounds to inhibit Aurora Kinase 1 activity in cells, a capture ELISA measuring Aurora Kinase 1 autophosphorylation was developed in HT29 colon carcinoma cells (Yasui Y, et al 2004). Briefly, 15,000 cells/well were seeded in a 96-well collagen coated plates in RPMI+10% FBS and incubated at 37° C. in 5% CO2 overnight. The following day, the cells were treated with 166 nM nacadazole compounds for 24 hours at 37° C. Synchronized cells were further treated with compounds for 2 hours. Compound dilutions were prepared from 0.1 mM DMSO stocks such that 1.1 μL of each dilution was added to obtain a final concentration ranging from 10 μM to 13 nM in one-third log steps. Following compound treatment, plates were centrifuged at 1000 rpm for 2 minutes and washed twice with 100 μL of cold sterile TBS. Cells were then lysed (100 μL of 150 mM NaCl, 20 mM Tris, pH 7.5, 1 mM EDTA, 1 mM EGTA, 1% Triton-x-100 plus protease and phosphatase inhibitors) by shaking at 4° C. for 1 hour. Cell lysates were transferred to plates pre-coated with anti-phospho mAur1 (Rockland, 600-401-677) and blocked with 5% blocker A in TBS from Meso Scale Discovery. After incubating for 1 hour at RT, plates were washed with 300 μL of TBST for a total of three times. The supernatant was removed and replaced with 50 μL of diluted primary antibody (anti-Aurora Kinase 1, Pharmingen, 611083) at 1:1000 in 2% blocker A in TBS and incubated at room temperature for 1 hour. The antibody buffer was removed from each well and washed three times with 300 μL of cold TBS-T ([…] Tris pH 8.0, 138 mM NaCl, 2.7 mM KCL, 0.05% Tween 20). The wash buffer was replaced with 50 μL of secondary antibody (Sulfa TAG anti-mouse, Meso Scale Discovery) at 1:1000 in 2% blocker A and incubated at room temperature for 1 hour. For the final readout with the Sector 6000, 150 μL of reading buffer T was added and the plates were read immediately.

[1] = molecular target: T2, murine Aurora Kinase 1 (mAur1) (Mus musculus, UniProt O70126); experiment: murine Aurora Kinase 1 (mAur1) biochemical Scintillation Proximity Assay; conditions: SPA, biotinylated Peptide 830, 1 μM ATP, 12 nM GST-tagged mAur 1 co-expressed with human INCENP
T2 construct: recombinant, GST-tagged mAur 1 (amino acids 67-345) that was co-expressed with human INCENP; GST; made in house
Protocol: (§1) Using a Scintillation Proximity Assay (SPA) format, the murine Aurora Kinase 1 (mAur1) and murine Aurora Kinase 2 (mAur2) biochemical assay measures the ability of mAur2 to phosphorylate the substrate, biotinylated Peptide 830 (DRT, Protein Sciences). Once radiolabeled by the enzyme, the biotinylated substrate is captured on streptavidin-coated SPA beads and the radioactivity, in proximity to the SPA beads, is measured. For the generation of IC50 curves, the reaction was performed in 96-well isoplates (Wallac 1450-514) under the following conditions: a 10 mM stock solution of compound (in 100% dimethylsulfoxide; DMSO) was diluted 10 fold in 100% DMSO. Compounds were then serially diluted, 1:5, for an eight point dose curve, in 100% DMSO. A volume of 1 μL of the diluted compound was added to the reaction buffer that consisted of 25 mM HEPES pH 7.5, 1 mM MnCl2, 1 mM MgCl2, 1 mM DTT, 0.01% Tween20. A mixture with a final concentration per well of 1 μM cold ATP, 0.1 μCi ^33P-ATP (Amersham AH9968) and 1 μM biotinylated Peptide 830 was then added. The reaction was initiated with the addition of either recombinant, GST-tagged mAur 1 (amino acids 67-345) that was co-expressed with human INCENP (amino acids 704-919) (DRT, Protein Sciences) at a final concentration of 12 nM or N-terminal His-tagged mAur2 (amino acids 98-395; DRT, Protein Sciences) at a final concentration of 20 nM. The final reaction volume in each well was 100 μL and the final compound concentration ranged from 10 μM-[…] in 1% DMSO. The reaction mixture was allowed to incubate for 1-2 hours with gentle agitation at 25° C. To terminate the reaction, streptavidin-coated SPA beads (Amersham RPNQ0007; 50 μL of 0.5 mg beads dissolved in 165 mM EDTA) were then added to each well and incubation proceeded for an additional 15 minutes at 25° C. The plate was then centrifuged for ten minutes at 2000 rpm. Phosphorylation of the peptide substrate was measured using a Wallac 1450 Microbeta Plus Liquid Scintillation Counter.

[2] = molecular target: T3, murine Aurora Kinase 2 (mAur2) (Mus musculus, UniProt P97477); experiment: murine Aurora Kinase 2 (mAur2) biochemical Scintillation Proximity Assay; conditions: SPA, biotinylated Peptide 830, 1 μM ATP, 20 nM His-tagged mAur2
T3 construct: N-terminal His-tagged mAur2 (amino acids 98-395; DRT, Protein Sciences); His (N); made in house
T3 sequence (P97477 98-395): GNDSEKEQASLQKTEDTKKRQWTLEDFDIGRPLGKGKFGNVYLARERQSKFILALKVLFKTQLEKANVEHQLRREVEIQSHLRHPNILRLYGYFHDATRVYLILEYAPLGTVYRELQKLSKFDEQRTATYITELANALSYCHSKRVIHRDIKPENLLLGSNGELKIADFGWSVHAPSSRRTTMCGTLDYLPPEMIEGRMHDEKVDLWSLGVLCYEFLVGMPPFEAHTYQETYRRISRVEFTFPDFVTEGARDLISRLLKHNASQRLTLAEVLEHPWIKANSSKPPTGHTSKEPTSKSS
Protocol: as §1

T2 sequence (O70126 67-345): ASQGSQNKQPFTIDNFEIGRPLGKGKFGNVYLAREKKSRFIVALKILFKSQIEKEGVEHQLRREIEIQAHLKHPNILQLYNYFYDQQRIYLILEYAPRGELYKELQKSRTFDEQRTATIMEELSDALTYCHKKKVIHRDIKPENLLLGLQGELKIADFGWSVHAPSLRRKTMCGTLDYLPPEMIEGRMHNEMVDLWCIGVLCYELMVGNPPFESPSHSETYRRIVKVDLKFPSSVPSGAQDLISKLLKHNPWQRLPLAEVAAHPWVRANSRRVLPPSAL
T2 sequence (Q9NQS7 704-918 partner): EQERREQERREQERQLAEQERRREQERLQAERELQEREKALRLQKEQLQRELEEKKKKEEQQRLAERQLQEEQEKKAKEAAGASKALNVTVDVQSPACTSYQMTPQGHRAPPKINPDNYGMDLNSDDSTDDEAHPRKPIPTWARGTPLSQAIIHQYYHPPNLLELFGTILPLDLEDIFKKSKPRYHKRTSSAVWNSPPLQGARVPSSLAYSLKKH
T1 sequence (Q96GD4 whole entry): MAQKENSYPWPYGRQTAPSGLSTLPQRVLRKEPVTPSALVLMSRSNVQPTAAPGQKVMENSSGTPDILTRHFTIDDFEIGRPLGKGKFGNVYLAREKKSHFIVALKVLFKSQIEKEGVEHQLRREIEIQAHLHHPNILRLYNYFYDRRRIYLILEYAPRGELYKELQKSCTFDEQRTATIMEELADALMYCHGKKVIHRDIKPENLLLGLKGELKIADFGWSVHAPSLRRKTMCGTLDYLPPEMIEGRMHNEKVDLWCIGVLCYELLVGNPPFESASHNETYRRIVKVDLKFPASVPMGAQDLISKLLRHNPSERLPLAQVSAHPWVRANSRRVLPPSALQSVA

Structure (SMILES) | IC50 (Aurora Kinase 1) [nM] | IC50 [1] [nM] | IC50 [2] [nM]
Nc1ncnn2cc(C(=O)NCC(F)(F)F)c(-c3ccc(Nc4nc5ccc(OC(F)(F)F)cc5[nH]4)cc3)c12 [Example 31, 4-amino-N-(2,2,2-trifluoroethyl)-5-(4-{[6-(trifluoromethoxy)-1H-benzimidazol-2-yl]amino}phenyl)pyrrolo[2,1-f][1,2,4]triazine-6-carboxamide] | < 1000 |  | 
Nc1ncnn2cc(C(=O)NCC(F)(F)F)c(-c3ccc(Nc4nc5ccc(N6CCCC6)nc5[nH]4)cc3)c12 [Example 20, 4-amino-5-{4-[(5-pyrrolidin-1-yl-3H-imidazo[4,5-b]pyridin-2-yl)amino]phenyl}-N-(2,2,2-trifluoroethyl)pyrrolo[2,1-f][1,2,4]triazine-6-carboxamide] | < 1000 |  | 
CC(C)(C)c1ccc2nc(Nc3ccc(-c4c(C(=O)NCC(F)(F)F)cn5ncnc(N)c45)cc3)[nH]c2c1 [Example 10, 4-amino-5-{4-[(6-tert-butyl-1H-benzimidazol-2-yl)amino]phenyl}-N-(2,2,2-trifluoroethyl)pyrrolo[2,1-f][1,2,4]triazine-6-carboxamide] | < 1000 |  | 
Nc1ncnn2cc(C(=O)NCC(F)(F)F)c(-c3ccc(Nc4nc5ccc(Oc6ccccc6)c(F)c5[nH]4)cc3)c12 [Example 32, 4-amino-5-{4-[(7-fluoro-6-phenoxy-1H-benzimidazol-2-yl)amino]phenyl}-N-(2,2,2-trifluoroethyl)pyrrolo[2,1-f][1,2,4]triazine-6-carboxamide] | < 1000 |  | 
Nc1ncnn2cc(C(=O)NCC(F)(F)F)c(-c3ccc(Nc4nc5cc6c(cc5[nH]4)OC(F)(F)O6)cc3)c12 [Example 17, 4-amino-5-{4-[(2,2-difluoro-5H-[1,3]dioxolo[4,5-f]benzimidazol-6-yl)amino]phenyl}-N-(2,2,2-trifluoroethyl)pyrrolo[2,1-f][1,2,4]triazine-6-carboxamide] | < 1000 | < 100 | < 100
Nc1ncnn2cc(C(=O)NCC(F)(F)F)c(-c3ccc(Nc4nc5ccc(Cl)nc5[nH]4)cc3)c12 [Example 26, 4-amino-5-{4-[(5-chloro-3H-imidazo[4,5-b]pyridin-2-yl)amino]phenyl}-N-(2,2,2-trifluoroethyl)pyrrolo[2,1-f][1,2,4]triazine-6-carboxamide] |  | < 100 | < 100
Nc1ncnn2cc(C(=O)NCC(F)(F)F)c(-c3ccc(Nc4nc5ccc([N+](=O)[O-])cc5[nH]4)cc3)c12 [Example 23, 4-amino-5-{4-[(6-nitro-1H-benzimidazol-2-yl)amino]phenyl}-N-(2,2,2-trifluoroethyl)pyrrolo[2,1-f][1,2,4]triazine-6-carboxamide] |  | < 100 | < 100

Other lines, results leading:

IC50 (Aurora Kinase 1) [nM] | IC50 [1] [nM] | IC50 [2] [nM] | Structure (SMILES)
< 1000 |  |  | Nc1ncnn2cc(C(=O)NCC(F)(F)F)c(-c3ccc(Nc4nc5ccc(Oc6ccc(F)cc6)c(F)c5[nH]4)cc3)c12 [Example 35, 4-amino-5-(4-{[7-fluoro-6-(4-fluorophenoxy)-1H-benzimidazol-2-yl]amino}phenyl)-N-(2,2,2-trifluoroethyl)pyrrolo[2,1-f][1,2,4]triazine-6-carboxamide]
< 1000 | < 100 | < 100 | CC(C)(C)NC(=O)c1cn2ncnc(N)c2c1-c1ccc(Nc2nc3cc(F)cc(F)c3[nH]2)cc1 [Example 72, 4-amino-N-(tert-butyl)-5-{4-[(5,7-difluoro-1H-benzimidazol-2-yl)amino]phenyl}pyrrolo[2,1-f][1,2,4]triazine-6-carboxamide]
< 1000 | < 100 | < 100 | CNC(=O)c1cn2ncnc(N)c2c1-c1ccc(Nc2nc3ccc(Oc4ccccc4)c(F)c3[nH]2)cc1 [Example 102, 4-amino-5-{4-[(7-fluoro-6-phenoxy-1H-benzimidazol-2-yl)amino]phenyl}-N-methylpyrrolo[2,1-f][1,2,4]triazine-6-carboxamide]
< 1000 | < 100 | < 100 | Nc1ncnn2cc(C(=O)NCC(F)(F)F)c(-c3ccc(Nc4nc5ccc(NC6CCC6)nc5[nH]4)cc3)c12 [Example 47, 4-amino-5-(4-{[5-(cyclobutylamino)-3H-imidazo[4,5-b]pyridin-2-yl]amino}phenyl)-N-(2,2,2-trifluoroethyl)pyrrolo[2,1-f][1,2,4]triazine-6-carboxamide]
 | < 100 | < 100 | CC(C)CNC(=O)c1cn2ncnc(N)c2c1-c1ccc(Nc2nc3ccc(Oc4ccccc4)c(F)c3[nH]2)cc1 [Example 111, 4-amino-5-{4-[(7-fluoro-6-phenoxy-1H-benzimidazol-2-yl)-amino]phenyl}-N-isobutylpyrrolo[2,1-f][1,2,4]triazine-6-carboxamide]
 | < 100 | < 100 | Nc1ncnn2cc(C(=O)NCC3CC3)c(-c3ccc(Nc4nc5cc(F)cc(F)c5[nH]4)cc3)c12 [Example 80, 4-amino-N-(cyclopropylmethyl)-5-{4-[(5,7-difluoro-1H-benzimidazol-2-yl)amino]phenyl}pyrrolo[2,1-f][1,2,4]triazine-6-carboxamide]
 | < 100 | < 100 | COCC1CCCN1C(=O)c1cn2ncnc(N)c2c1-c1ccc(Nc2nc3cc(F)cc(F)c3[nH]2)cc1 (centres unmarked) [Example 91, 5-{4-[(5,7-difluoro-1H-benzimidazol-2-yl)amino]phenyl}-6-{[2-(methoxymethyl)pyrrolidin-1-yl]carbonyl}pyrrolo[2,1-f][1,2,4]triazin-4-amine]
 | < 100 | < 100 | Nc1ncnn2cc(C(=O)N3CCCC3)c(-c3ccc(Nc4nc5cc(F)cc(F)c5[nH]4)cc3)c12 [Example 96, 5-{4-[(5,7-difluoro-1H-benzimidazol-2-yl)amino]phenyl}-6-(pyrrolidin-1-ylcarbonyl)pyrrolo[2,1-f][1,2,4]triazin-4-amine]

From patent publication US8338594B2, “Pyrrolotriazine derivatives useful for treating cancer through inhibition of aurora kinase” (Bayer HealthCare LLC, priority 2005, dated 2012)
